This note sets out measurements from ChEMBL document CHEMBL1140492, “Synthesis and inhibitory activity of 4-alkynyl and 4-alkenylquinazolines: identification of new scaffolds for potent EGFR tyrosine kinase inhibitors” (Bioorg Med Chem Lett, 2007).

Structures are written as SMILES.

This experiment addresses Epidermal growth factor receptor (Homo sapiens, UniProt P00533). Description: Inhibition of partially purified EGFR tyrosine kinase from human A431 cells.

Sequence of Epidermal growth factor receptor (P00533 whole entry): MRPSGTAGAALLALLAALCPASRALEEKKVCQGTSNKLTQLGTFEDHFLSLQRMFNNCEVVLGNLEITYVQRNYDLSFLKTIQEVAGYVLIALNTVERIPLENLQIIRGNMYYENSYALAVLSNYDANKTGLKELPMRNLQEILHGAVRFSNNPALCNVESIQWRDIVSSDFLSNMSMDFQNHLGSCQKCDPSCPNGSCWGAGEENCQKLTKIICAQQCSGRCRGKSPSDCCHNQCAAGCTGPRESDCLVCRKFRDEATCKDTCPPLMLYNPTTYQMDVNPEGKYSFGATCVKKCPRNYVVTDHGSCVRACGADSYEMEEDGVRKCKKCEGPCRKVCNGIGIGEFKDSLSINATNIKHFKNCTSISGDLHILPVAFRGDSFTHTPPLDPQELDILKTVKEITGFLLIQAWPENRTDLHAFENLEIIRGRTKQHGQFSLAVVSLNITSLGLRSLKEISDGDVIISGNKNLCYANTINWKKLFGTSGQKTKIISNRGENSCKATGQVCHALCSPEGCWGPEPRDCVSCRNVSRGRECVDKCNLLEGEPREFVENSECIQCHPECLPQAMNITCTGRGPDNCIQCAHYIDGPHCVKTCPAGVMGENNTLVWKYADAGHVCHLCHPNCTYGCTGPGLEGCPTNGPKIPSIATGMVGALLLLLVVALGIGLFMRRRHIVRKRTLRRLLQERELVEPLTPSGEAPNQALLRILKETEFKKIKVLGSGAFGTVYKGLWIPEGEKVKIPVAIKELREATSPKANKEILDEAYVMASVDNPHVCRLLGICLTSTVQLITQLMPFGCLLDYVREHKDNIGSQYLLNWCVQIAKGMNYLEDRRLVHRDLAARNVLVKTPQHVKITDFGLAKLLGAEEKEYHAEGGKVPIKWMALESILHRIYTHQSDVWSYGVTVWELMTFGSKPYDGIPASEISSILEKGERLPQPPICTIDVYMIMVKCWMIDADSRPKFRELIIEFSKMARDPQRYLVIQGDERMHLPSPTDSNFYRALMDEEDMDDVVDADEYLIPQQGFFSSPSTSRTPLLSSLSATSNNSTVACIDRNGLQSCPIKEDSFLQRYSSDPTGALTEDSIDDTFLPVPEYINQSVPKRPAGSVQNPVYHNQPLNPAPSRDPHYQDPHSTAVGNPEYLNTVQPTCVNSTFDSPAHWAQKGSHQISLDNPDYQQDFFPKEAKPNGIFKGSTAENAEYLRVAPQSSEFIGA

On to `COc1cc2ncnc(C#Cc3ccccc3)c2cc1OC`, for which the concentration for half-maximal inhibition (IC50) (commonly the point on the concentration scale where inhibition reaches its midpoint) was determined as 5600 nM.
The molecule `COc1cc2ncnc(C#CCCc3ccccc3)c2cc1OC` had an IC50 of 14 nM.
Turning to `COc1cc2ncnc(C#CCOc3ccccc3)c2cc1OC`, half-maximal inhibition (IC50) was put at 15 nM.
The molecule `COc1cc2ncnc(C#CC(C)(C)N(C)c3ccccc3)c2cc1OC` had an IC50 of 80 nM.
In turn, `COc1cc2ncnc(/C=C/CCc3ccccc3)c2cc1OC` gave an IC50 of 4 nM.
The result for `COc1cc2ncnc(C#Cc3ccccc3-c3ccccc3)c2cc1OC` reads 26 nM; that for `CCOc1cc2ncnc(/C=C/c3ccccc3)c2cc1OCC`, 15 nM.
In turn, `CCOc1cc2ncnc(/C=C/CCCc3ccccc3)c2cc1OCC` yielded an IC50 of 140 nM.
With `CCOc1cc2ncnc(C#Cc3[nH]ccc3-c3ccccc3)c2cc1OCC`, the IC50 came to 10 nM.
With `CCOc1cc2ncnc(C#Cc3c[nH]nc3-c3ccc(F)cc3)c2cc1OCC`, the IC50 stood at 1.8 nM.
The result for `CCOc1cc2ncnc(C#C[C@](C)(Cc3ccccc3)N3CCC(C(=O)O)CC3)c2cc1OCC` reads 662 nM; that for `COc1cc2ncnc(C#C[C@@](C)(Cc3ccccc3)N3CCC(C(=O)O)CC3)c2cc1OC`, 33 nM.
The value for `CCN(CC)[C@@](C)(C#Cc1ncnc2cc(OC)c(OC)cc12)Cc1ccccc1` was 3 nM.
In the case of `CCN(CC)[C@@](C)(C#Cc1ncnc2cc(OC)c(OC)cc12)c1ccccc1`, the IC50 was 7300 nM.
For the molecule `CCN(CC)[C@@](C)(C#Cc1ncnc2cc(OC)c(OC)cc12)CCc1ccccc1`, it took 1200 nM to reach half-maximal inhibition (IC50).
In the case of `CCN(CC)[C@@](C)(C#Cc1ncnc2cc(OC)c(OC)cc12)Cc1ccncc1`, the IC50 worked out at 200 nM.
On to `CCN(CC)[C@@](C)(C#Cc1ncnc2cc(OC)c(OC)cc12)CC1CCCCC1`, for which the IC50 turned out to be 1100 nM.
In turn, `CCN(CC)[C@@](C)(CCc1ncnc2cc(OC)c(OC)cc12)Cc1ccccc1` gave a half-inhibitory concentration (IC50) of 130 nM.
Molecule `CCOc1cc2ncnc(/C=C/CCc3ccccc3)c2cc1OCC` showed an IC50 of 5 nM.
With `CCOc1cc2ncnc(C#Cc3nccn3-c3ccccc3)c2cc1OCC`, 12 nM corresponded to half-maximal inhibition (IC50).
The result for `CCOc1cc2ncnc(C#C[C@@](C)(Cc3ccccc3)N3CCC(C(=O)O)CC3)c2cc1OCC` reads 4.2 nM; that for `COc1cc2ncnc(C#CC(C)(C)Cc3ccccc3)c2cc1OC`, 13 nM.
The molecule `CCOc1cc2ncnc(C#CC(C)(Cc3ccccc3)N3CCC(C(=O)O)CC3)c2cc1OCC` (racemic) displayed a concentration for half-maximal inhibition (IC50) of 11.7 nM.
